Results reported in PubChem BioAssay (NCI).
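Five concentrations, 48 hours, 96-well plates. GI50 marks 50% less growth. TGI: total growth inhibition.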

Key:
Experiment in all cases: inhibition of tumour cell growth, NCI panel, 48 h
ACHN renal = tested on: ACHN renal
UACC-257 melanoma = tested on: UACC-257 melanoma
SW-620 colon = tested on: SW-620 colon
HCT-15 colon = tested on: HCT-15 colon
A549 NSCLC = tested on: A549 NSCLC
SK-MEL-28 melanoma = tested on: SK-MEL-28 melanoma
CCRF-CEM leukemia = tested on: CCRF-CEM leukemia
NCI-H226 lung = tested on: NCI-H226 lung
NCI-H460 lung = tested on: NCI-H460 lung
MDA-MB-435 = tested on: MDA-MB-435

SMILES	TGI (ACHN renal)	TGI (UACC-257 melanoma)	TGI (SW-620 colon)	TGI (HCT-15 colon)	TGI (A549 NSCLC)	TGI (SK-MEL-28 melanoma)	TGI (CCRF-CEM leukemia)	TGI (NCI-H226 lung)	TGI (NCI-H460 lung)	TGI (MDA-MB-435)	GI50 (ACHN renal)	GI50 (UACC-257 melanoma)	GI50 (SW-620 colon)	GI50 (A549 NSCLC)	GI50 (SK-MEL-28 melanoma)	GI50 (CCRF-CEM leukemia)	GI50 (NCI-H226 lung)	GI50 (NCI-H460 lung)	GI50 (HCT-15 colon)	GI50 (MDA-MB-435)
CC(C)N(C(=O)C12C3C4C1(I)C1C2C3(I)C41C(=O)N(C(C)C)C(C)C)C(C)C (stereo unspecified)	> 100 µM	> 100 µM	> 59.6 µM	> 59.8 µM	> 100 µM	> 100 µM	> 61.2 µM	> 100 µM	> 100 µM											
O=P1(c2ccccc2)CCCCC1	> 100 µM	> 100 µM		> 100 µM	> 100 µM	> 100 µM	> 100 µM	> 100 µM	> 100 µM											
CC1COC(C)(C)P(=O)(c2ccccc2)C1 (stereo unspecified)	> 100 µM	> 100 µM	> 100 µM	> 100 µM	> 100 µM	> 100 µM	> 100 µM	> 100 µM	> 100 µM											
c1ccc2c(c1)c1c(c3ccccc32)CN2CCCC2C1 (stereo unspecified)	9.35 µM	20.3 µM	16.7 µM	> 70.4 µM	17.9 µM	12.9 µM	15.5 µM		> 100 µM	31.6 µM										
CC(=O)[O][Ga]([Br])[O]C(C)=O	> 100 µM	> 100 µM	> 100 µM		> 100 µM	> 100 µM	> 100 µM	> 100 µM	> 100 µM		> 100 µM	> 100 µM	> 100 µM	> 100 µM	> 100 µM	> 100 µM	> 100 µM	> 100 µM		
S=c1[nH]c(=S)c2nnn(-c3ccccc3)c2[nH]1	> 100 µM	> 100 µM	> 100 µM	> 100 µM	> 100 µM	> 100 µM	> 100 µM	> 100 µM	> 100 µM											
O=C1c2ccccc2-c2c1c1ccccc1c(=O)n2CCCCl	12.3 µM	76.5 µM	> 100 µM	> 100 µM	16 µM	> 100 µM	> 100 µM		> 100 µM	> 100 µM	3.03 µM	12.6 µM	8.75 µM	3.23 µM	> 100 µM	3.86 µM		3.57 µM	5.99 µM	28 µM
CC(C)C(=O)Nc1nc2c(ncn2C2OC(CO)C(O)C2O)c(=O)[nH]1 (stereo unspecified)	> 100 µM	> 100 µM	> 100 µM	> 100 µM	> 100 µM	> 100 µM	> 100 µM	> 100 µM	> 100 µM											
COC(=O)[C@H]1C=C[C@@H](C)n2c(=O)c3cc4ccccc4cc3c(=O)n21	> 100 µM	> 100 µM	> 100 µM	> 100 µM	> 100 µM	> 100 µM	> 100 µM	> 100 µM	> 100 µM											
Cc1ccc(C)c(N=C2NC(=O)C(CC(=O)Nc3ccc(Cl)cc3Cl)S2)c1 (stereo unspecified)	> 100 µM	> 100 µM	> 100 µM	> 100 µM	> 100 µM	> 100 µM	> 100 µM	> 100 µM	> 100 µM											
COC(=O)/C=C1\CCC(C)O1 (stereo unspecified)	> 100 µM	> 100 µM	> 100 µM	> 100 µM	> 100 µM		> 100 µM		> 100 µM											
CC(C)N(CCn1c2c3ccccc3ccc2c2oc(=O)c3ccccc3c21)C(C)C	> 100 µM	> 100 µM	> 100 µM	> 100 µM	> 100 µM	> 100 µM	> 100 µM	> 100 µM	> 100 µM											
O=C1NC(=NCCc2cccc(Cl)c2)S/C1=C\c1ccc2ncccc2c1	> 25 µM	> 25 µM		> 25 µM	> 25 µM	> 25 µM	> 25 µM	> 25 µM	> 25 µM	> 25 µM	> 25 µM	> 25 µM		> 25 µM	> 25 µM	> 25 µM	> 25 µM	> 25 µM	1.08 µM	0.635 µM
Cc1ccc(NC(=O)CSc2nnc(-c3ccc(N=Cc4ccc(Cl)cc4)cc3)o2)cc1	> 100 µM	> 100 µM	> 100 µM	> 100 µM	> 100 µM	> 100 µM	> 100 µM	> 100 µM	> 100 µM											
O=Cc1ccc2c(c1-c1c(C=O)ccc3c1OCO3)OCO2	> 100 µM	> 100 µM	> 100 µM	> 100 µM	> 100 µM	> 100 µM	> 100 µM	> 100 µM	> 100 µM											
Cc1cc(NS(=O)(=O)c2ccc(Nc3c4ccccc4nc4c(C(=O)N5CCN(CCO)CC5)ccc(Cl)c34)cc2)no1		> 100 µM		> 100 µM	> 100 µM	> 100 µM	74 µM	> 100 µM	> 100 µM											
Cc1cc(C)nc(NS(=O)(=O)c2ccc(NC(=O)c3cccc4c(Nc5ccc(S(N)(=O)=O)cc5)c5ccccc5nc34)cc2)n1	> 100 µM	72.4 µM	> 100 µM	> 100 µM	> 100 µM	> 29.3 µM	> 25.1 µM	> 100 µM	> 100 µM											
O=C1OCC2C1C1c3ccccc3C(O)c3ccccc3C21 (stereo unspecified)	> 100 µM	> 100 µM	> 100 µM	> 100 µM	> 100 µM	> 100 µM	> 100 µM	> 100 µM	> 100 µM											
CC(=O)O[C@H]1CCC2[C@@H]3CCC4Nc5[nH]ncc5C[C@]4(C)C3CC[C@@]21C (stereo partly specified)	> 100 µM	72.4 µM	> 100 µM	> 100 µM	> 100 µM		66.5 µM	> 100 µM	> 100 µM											
COc1ncc(-c2ccc3ncnc(Nc4cccc(Cl)c4)c3c2)cc1NS(=O)(=O)C1CC1			> 100 µM			> 100 µM	> 100 µM			> 100 µM			> 100 µM		> 100 µM	> 100 µM				> 100 µM
COc1cc2c3c(n(CCCOC(=O)C(F)(F)F)c(=O)c2cc1OC)-c1cc2c(cc1C3=O)OCO2			> 100 µM	> 100 µM		> 100 µM	> 100 µM	0.161 µM	> 100 µM	3.69 µM	< 0.01 µM					< 0.01 µM	< 0.0151 µM	3 µM	0.103 µM	0.0232 µM
